Test results taken from patent US5418232A, “Diazabicycloalkene derivatives” (Daiichi Pharmaceutical Co., Ltd., priority 1992, dated 1995).
pEC50: −log10 of the molar value.

Experiments:
[1] = target: T1, Potassium channel (Rattus norvegicus, UniProt Q63563); test: Potassium channel opening activity, 86Rb release from excised rat aorta segment; format: cell-based, Wistar rat; settings: for ECAUC0.2 (effective concentration at which the area under the peak of the 86Rb release rate reached 0.2): rat aorta segment surface-perfused with test compound for 10 minutes; for potassium channel opening activity (in words): conclusion from Table 5
T1 construct: a segment of an excised aorta of a Wistar rat; from tissue; host or cells: excised aorta segment of Wistar rat

[2] = test system: Guinea Pig Tracheae; test: Relaxing activity in guinea pig tracheae contracted with 30 mM potassium chloride; format: cell-based; settings: for pEC50: Cavia porcellus, relaxation by 10^-8 g/ml isoproterenol as 100%, read-out: EC50 (concentration inducing 50% relaxation)
Procedure: Male guinea pigs (body weight: 400-650 g) were sacrificed by exsanguination, and tracheae were excised.
Tracheal responses were measured isometrically using a transducer "EF-601G" (manufactured by Nihon Koden Kogyo Co., Ltd.) and recorded on a multi-pen recorder "R64 GP" (manufactured by Rika Denki Co., Ltd.). The initial tension in the tracheal preparation was set up at 1 g after the preparation had equilibrated for about 60 minutes, a 30 mM potassium chloride was added to cause contraction.

[3] = test system: male HOS-Donryu rats; test: Antianginal activity, vasopressin-induced ST segment depression; format: in vivo, rat; settings: for S Value (area of ST segment depression over 5 minutes): i.v., Example 47 0.01, Nifedipine 0.03, Cromakalim 0.01 mg/kg, vasopressin 0.5 U/kg
Procedure: The test was carried out in accordance with the method of Hiramatsu, et al. (see Japanese Journal of Pharmacology, Vol. 20, p. 313 (1970)). […] A cannula for blood pressure measurement was inserted into the left femoral artery, and a cannula for drug administration was inserted into the left femoral vein. […] Then, ECG was taken every 30 seconds over a period of 5 minutes to observe depression of the ST segment. A control group was given the solvent for the drug (a solution in which 5% dimethyl sulfoxide, 5% polyethylene glycol 200 and 1% cremophor were dissolved in physiological saline).

[4] = test system: spontaneously hypertensive rats; test: Antihypertensive activity in spontaneously hypertensive rats (oral, tail-cuff); format: in vivo, rat; settings: for ED (50 mmHg): Rattus norvegicus, systolic blood pressure, read-out: ED50mmHg (effective dose for reducing blood pressure by 50 mmHg); for Max. increase of Heat Rate / Time for Onset of Max. Activity: dose reducing blood pressure by 50 to 60 mmHg
Procedure: Male spontaneously hypertensive rats (16 to 20-week-old; body weight: 300-400 g) fed ab lib. were forceably given oral administration of a test compound suspended in 0.5% (w/v) carboxymethyl cellulose aqueous solution. After 1, 2, 4, 6, 8, 24, 30 or 48 hours from the administration, the systolic blood pressure was measured by a tail-cuff method described in Arzneimittel-Forschung, Vol. 18, pp. 1285-1287 (1968)).
The antihypertensive activity of the test compound was obtained as an effective dose for reducing blood pressure by 50 mmHg (ED50mmHg). Further, the time of onset of the maximum activity and the maximum increase in heart rate at a dose for reducing blood pressure by 50 to 60 mmHg were measured.
The statistical difference between a test compound and EMD57283 was analyzed by the Student's t-test.

[5] = test system: spontaneously hypertensive rats; test: Effect on renal blood flow (Doppler probe); format: in vivo, rat; settings: for Increase in Renal Blood Flow 1 Hr after Administration: oral, dose which reduced blood pressure by about 50 mmHg; for activity in increasing the renal blood flow vs reference drug (in words): vs EMD57283
Procedure: Twenty-week-old male spontaneously hypertensive rats (body weight: 350-430 g) were anesthetized with pentobarbital (30 mg/kg, i.p.). An incision was made in the abdomen on the left side, and a Doppler probe for blood flow measurement was fitted to the left renal artery, and the code (wire lead) of the probe was passed under the back skin and taken out from the back of the neck. After 1 week from the operation, the code of the probe was connected to a Doppler blood flow meter to start measurement of the renal blood flow. After the renal blood flow reached to a steady state, a test compound was orally administered, and changes in renal blood flow were observed up to 9 hours. The test compound was used at a dose which reduced blood pressure by about 50 mmHg.

T1 sequence (Q63563 1-1545 isoform Q63563-2): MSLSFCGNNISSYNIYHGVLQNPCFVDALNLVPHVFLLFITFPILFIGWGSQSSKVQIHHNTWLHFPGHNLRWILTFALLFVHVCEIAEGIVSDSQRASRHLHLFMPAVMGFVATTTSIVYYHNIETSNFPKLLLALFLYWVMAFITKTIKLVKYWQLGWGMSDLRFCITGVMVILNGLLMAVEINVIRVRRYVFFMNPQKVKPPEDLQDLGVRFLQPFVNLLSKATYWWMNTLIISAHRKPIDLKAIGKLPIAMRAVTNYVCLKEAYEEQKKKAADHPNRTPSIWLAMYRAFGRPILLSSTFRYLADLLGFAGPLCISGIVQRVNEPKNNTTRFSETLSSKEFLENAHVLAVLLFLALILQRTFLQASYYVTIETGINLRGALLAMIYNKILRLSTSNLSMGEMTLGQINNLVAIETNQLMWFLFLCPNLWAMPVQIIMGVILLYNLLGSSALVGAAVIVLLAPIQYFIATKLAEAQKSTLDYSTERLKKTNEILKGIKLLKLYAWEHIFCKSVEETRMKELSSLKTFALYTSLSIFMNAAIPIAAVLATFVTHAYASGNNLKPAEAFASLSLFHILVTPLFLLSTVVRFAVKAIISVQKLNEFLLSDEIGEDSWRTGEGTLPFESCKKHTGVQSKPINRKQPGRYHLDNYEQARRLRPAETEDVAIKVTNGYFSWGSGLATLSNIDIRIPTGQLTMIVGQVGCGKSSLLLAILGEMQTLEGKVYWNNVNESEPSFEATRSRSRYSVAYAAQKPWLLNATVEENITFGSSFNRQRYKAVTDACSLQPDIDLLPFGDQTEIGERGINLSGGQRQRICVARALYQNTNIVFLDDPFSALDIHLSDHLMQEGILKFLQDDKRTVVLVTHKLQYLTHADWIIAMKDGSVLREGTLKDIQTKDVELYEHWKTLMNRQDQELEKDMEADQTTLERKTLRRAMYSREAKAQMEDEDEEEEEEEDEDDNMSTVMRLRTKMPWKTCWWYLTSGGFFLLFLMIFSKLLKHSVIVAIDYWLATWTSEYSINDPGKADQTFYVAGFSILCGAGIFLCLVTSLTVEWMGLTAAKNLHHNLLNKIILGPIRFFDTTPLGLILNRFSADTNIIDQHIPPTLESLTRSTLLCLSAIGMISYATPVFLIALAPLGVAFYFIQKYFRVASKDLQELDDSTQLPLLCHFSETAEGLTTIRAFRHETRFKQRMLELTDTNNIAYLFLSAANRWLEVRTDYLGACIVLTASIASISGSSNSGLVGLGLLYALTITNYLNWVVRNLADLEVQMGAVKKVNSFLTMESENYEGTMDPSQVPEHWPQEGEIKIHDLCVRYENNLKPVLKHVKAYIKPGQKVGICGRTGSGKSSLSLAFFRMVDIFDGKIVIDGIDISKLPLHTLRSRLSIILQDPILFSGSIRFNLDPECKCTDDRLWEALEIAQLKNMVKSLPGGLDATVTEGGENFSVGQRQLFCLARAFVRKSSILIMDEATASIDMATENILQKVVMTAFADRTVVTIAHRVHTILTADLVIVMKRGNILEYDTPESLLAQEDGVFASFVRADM
T1 sequence (Q63664 whole entry partner, the tested form may be a part): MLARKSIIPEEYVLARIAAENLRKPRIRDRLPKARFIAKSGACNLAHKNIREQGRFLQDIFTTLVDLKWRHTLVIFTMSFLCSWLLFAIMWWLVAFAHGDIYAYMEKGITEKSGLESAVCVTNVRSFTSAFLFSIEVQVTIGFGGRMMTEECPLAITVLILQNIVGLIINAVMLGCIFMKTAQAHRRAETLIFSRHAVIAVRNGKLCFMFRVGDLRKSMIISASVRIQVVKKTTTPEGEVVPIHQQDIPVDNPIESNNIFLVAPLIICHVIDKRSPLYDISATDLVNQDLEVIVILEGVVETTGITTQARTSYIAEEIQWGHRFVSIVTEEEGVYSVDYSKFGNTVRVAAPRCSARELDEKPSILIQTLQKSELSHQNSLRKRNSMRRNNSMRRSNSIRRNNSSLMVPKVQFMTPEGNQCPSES

Row | SMILES | ECAUC0.2 (effective concentration at which the area under the peak of the 86Rb release rate reached 0.2) [1] | pEC50 [2] | S Value (area of ST segment depression over 5 minutes) [3] | potassium channel opening activity (in words) [1] | activity in relaxing tracheal smooth muscle vs cromakalim (in words) [2] | antihypertensive activity (in words) [4] | duration of activity (in words) [4] | ED (50 mmHg) [4] | Max. increase of Heat Rate [4] | Time for Onset of Max. Activity [4] | Increase in Renal Blood Flow 1 Hr after Administration [5] | activity in increasing the renal blood flow vs reference drug (in words) [5] | antianginal activity (in words) ([3]; 0.01 mg/kg i.v.)
1 | CC1(C)Oc2ccc(C#N)cc2[C@@H](N2CCCC2=O)[C@@H]1O (relative stereo) [Cromakalim, 3,4trans-3,4-Dihydro-2,2-dimethyl-3-hydroxy-4-(2-oxopyrrolidin-1-yl)-2H-1benzopyran-6-carbonitrile, reference compound] | 2.8 | 4.31 | 562 μV.min | – | – | – | – | – | – | – | – | – | –
2 | CN1N=C(O[C@@H]2c3cc(C#N)ccc3OC(C)(C)[C@H]2O)C2CC2C1=O (relative stereo) [Example 22, (3S,4R,1'R*,6'S*)-3,4-dihydro-2,2-dimethyl-3-hydroxy-4-(3-methyl-2-oxo-3,4-diazabicyclo(4.1.0]hept-4-en-5-yloxy)-2H-benzopyran-6-carbonitrile] | 0.18 | – | – | possesses potassium channel opening activity | – | – | – | – | – | – | – | – | –
3 | C=CCN1N=C(O[C@@H]2c3cc(C#N)ccc3OC(C)(C)[C@H]2O)C2CC2C1=O (relative stereo) [Example 23, (3S,4R,1'R*,6'S*)-4-(3-allyl-2-oxo-3,4-diazabicyclo[4.1.0]hept-4-en-5-yloxy)-3,4-dihydro-2,2-dimethyl-3-hydroxy-2H-1-benzopyran-6-carbonitrile] | 0.18 | 5.26 | – | possesses potassium channel opening activity | more potent activity in relaxing tracheal smooth muscle than cromakalim | – | – | – | – | – | – | – | –
4 | C#CCN1N=C(O[C@@H]2c3cc(C#N)ccc3OC(C)(C)[C@H]2O)C2CC2C1=O (relative stereo) [Example 24, (3S, 4R, 1'R*,6'S*)-3,4-dihydro-2,2-dimethyl-3-hydroxy-4-(2-oxo-3-(2-propyn-1-yl)-3,4-diazabicyclo[4.1.D]hept-4-en-5-yloxy)-2H-1-benzopyran-6-carbonitrile] | – | – | – | – | – | potent antihypertensive activity | long duration of activity | 0.02 mg/kg | 22.2 ± 2.3% | 5.6 ± 1.2 h | – | – | –
5 | CC(C)=CCN1N=C(O[C@@H]2c3cc(C#N)ccc3OC(C)(C)[C@H]2O)C2CC2C1=O (relative stereo) [Example 29, (3S,4R,1'R*,6'S*)-3,4-dihydro-2,2-dimethyl-3-hydroxy-4-(3-(3-methyl-2-buten-1-yl)-2-oxo-3,4-diazabicyclo[4.1.0]hept-4-en-5-yloxy)-2H-1-benzopyran-6-carbonitrile] | – | 5.52 | – | – | more potent activity in relaxing tracheal smooth muscle than cromakalim | – | – | – | – | – | – | – | –
6 | CCCCN1N=C(O[C@@H]2c3cc(C#N)ccc3OC(C)(C)[C@H]2O)C2CC2C1=O (relative stereo) [Example 32, (3S,4R,1'R*,6'S*)-4-(3-n-butyl-2-oxo-3,4-diazabicyclo(4.1.0]hept-4-en-5-yloxy)-3,4-dihydro-2,2-dimethyl-3-hydroxy-2H-1-benzopyran-6-carbonitrile] | – | 5.30 | – | – | more potent activity in relaxing tracheal smooth muscle than cromakalim | potent antihypertensive activity | long duration of activity | 0.076 mg/kg | 22.3 ± 5.9% | 6.0 ± 0.6 h | – | – | –
7 | CC1(C)Oc2ccc(C#N)cc2[C@@H](OC2=NN(Cc3c(Cl)cccc3Cl)C(=O)C3CC23)[C@@H]1O (relative stereo) [Example 36, (3S,4R,1'R*,6'S*)-4-(3-(2,6-dichlorobenzyl)-2-oxo-3,4-diazabicyclo[4.1.0]hept-4-en-5-yloxy)-3,4-dihydro-2,2-dimethyl-3-hydroxy-2H-1-benzopyran-6-carbonitrile] | – | – | – | – | – | potent antihypertensive activity | long duration of activity | 0.4 mg/kg | 9.6 ± 1.3% | 6.8 ± 0.5 h | 15.4 ± 4.5% | more potent activity in increasing the renal blood flow than the reference drug | –
8 | CC1(C)Oc2ccc(C#N)cc2[C@@H](OC2=NN(Cc3ccc(Cl)cc3Cl)C(=O)C3CC23)[C@@H]1O (relative stereo) [Example 37, (3S,4R,1'R*,6'S*)-4-(3-(2,4-dichlorobenzyl)-2-oxo-3,4-diazabicyclo[4.1.0]hept-4-en-5-yloxy)-3,4-dihydro-2,2-dimethyl-3-hydroxy-2H-1-benzopyran-6-carbonitrile] | – | – | – | – | – | potent antihypertensive activity | long duration of activity | 0.035 mg/kg | 9.2 ± 1.7% | 7.6 ± 0.4 h | – | – | –
9 | CC1(C)Oc2ccc(C#N)cc2[C@@H](OC2=NNC(=O)C3CC23)[C@@H]1O (relative stereo) [Example 47, (3S,4R,1'R*,6'S*)-3,4-Dihydro-2,2-dimethyl-3-hydroxy-4-(2-oxo-3,4-diazabicyclo[4.1.0]-hept-4-en-5-yloxy)-2H-1-benzopyran-6-carbonitrile] | 0.21 | – | 109 μV.min | possesses potassium channel opening activity | – | – | – | – | – | – | 24.3 ± 13.7% | more potent activity in increasing the renal blood flow than the reference drug | significantly reduces the S value
10 | CN1N=C(O[C@@H]2c3cc(C#N)ccc3OC(C)(C)[C@@]2(C)O)C2CC2C1=O (relative stereo) [Example 56, (3S,4R,1'R*,6'S*)-3,4-Dihydro-3-hydroxy-4-(3-methyl-2-oxo-3,4-diazabicyclo[4.1.0]hept-4-en-5-yloxy)-2,2,3-trimethyl-2H-1-benzopyran-6-carbonitrile] | 0.021 | – | – | possesses potassium channel opening activity | – | potent antihypertensive activity | long duration of activity | 0.0023 mg/kg | 19.2 ± 0.5% | 6.4 ± 0.4 h | – | – | –
11 | Cn1nc(O[C@@H]2c3cc(C#N)ccc3OC(C)(C)[C@H]2O)ccc1=O [EMD57283, (3S,4R)3,4-Dihydro-4-((1,6-dihydro-1-methyl-6-oxo-3-pyridazinyl)oxy)-2,2-imethyl-3-hydroxy-2H-1-benzopyran-6-carbonitrile, reference compound] | 0.16 | – | – | – | – | – | – | 0.0064 mg/kg | 41.3 ± 2.8% | 2.8 ± 0.7 h | 10.8 ± 4.1% | – | –
12 | CC1(C)Oc2ccc(C#N)cc2[C@@H](OC2=NN(Cc3ccccc3)C(=O)[C@H]3C[C@@H]23)[C@@H]1O [Example 21, (3S, 4R, 1'S, 6'R)-4-(3-Benzyl-2-oxo-3,4-diazabicyclo[4.1.0]hept-4-en-5-yloxy)-3,4-dihydro-2,2-dimethyl-3-hydroxy-2H-1-benzopyran-6-carbonitrile] | – | – | – | – | – | potent antihypertensive activity | long duration of activity | 0.053 mg/kg | 19.7 ± 3.0% | 6.4 ± 0.5 h | 59.4 ± 9.7% | more potent activity in increasing the renal blood flow than the reference drug | –
13 | COC(=O)C1=C(C)NC(C)=C(C(=O)OC)C1c1ccccc1[N+](=O)[O-] [Nifedipine, reference compound] | – | – | 393 μV.min | – | – | – | – | – | – | – | – | – | –
